# Reference: a melting point compilation (Tetko et al.; mined from patent text by program, amines drawn as free bases though some values may be those of a salt)
row,SMILES,melting point
1,COc1nc(OC)nc(OC(C(=O)O)C(C)(C)C)n1 (stereo not drawn),37 to 40 °C
2,O=C(O)CN(C(=O)c1ccccc1S)C1CCCC1,148 to 150 °C
3,Cc1nn(C(=O)Oc2ccccc2)c(=O)n1N,175 °C
4,CCCCCCCCCCCc1[nH]c2cc(C(=O)O)ccc2c1C,153 to 156 °C
5,Nc1nc(NC2CCCCCCC2)c2ncn(C3C=CC(CO)C3)c2n1 (stereo not drawn),171 to 173 °C
6,Nc1cc(F)c(Cl)c(F)c1N,77 to 78 °C
7,N#Cc1cc(-c2cc(C(F)F)c3c(-c4cccnc4)n[nH]c3n2)ccc1N,296 °C
8,CC(C)Oc1cccc(CC(=O)N2CCCC(CCN3CCC(C(=O)c4nc5ccccc5n4Cc4ccc(F)cc4)CC3)(c3ccc(Cl)c(Cl)c3)C2)c1 (stereo not drawn),70 to 73 °C
9,CC1(CSc2ccc(N)c([N+](=O)[O-])c2)CC1(Cl)Cl (stereo not drawn),76 to 78 °C
10,O=C1C2=C(CCCC2)C(=O)N1c1cc2c(cc1F)nnn2-c1ccccc1O,274 to 275 °C
11,Cc1c(NC(=O)CC(C)(C)C)cc2c(c1C)OCC2(C)c1ccc(C(C)C)cc1 (stereo not drawn),132 to 133 °C
12,O=C(c1cccnc1)c1cc(-c2ccc(Cl)cc2)c(N2CCOCC2)s1,114 °C
13,CCCCCCCCC1C=CC(/C=C/c2ccc(C(=O)O)o2)=C2N=C3CCCC(C)(C)C3=C21 (stereo not drawn),115 to 117 °C
14,Fc1ccc2[nH]c3c(c2c1)CN(CCc1ccccn1)CC3,199 to 201 °C
15,CC(=CC(=O)c1cccnc1)N(C)C,62 to 64 °C
16,Fc1ccc(Nc2nc(N/N=C/c3c(F)cccc3F)nc(N3CCOCC3)n2)cc1,156 °C
17,CC(C)(CO)CCCCCC(O)CCCCC(C)(C)CO (stereo not drawn),79 to 80 °C
18,CN(C)CCNC(=O)Nc1ccccc1,141 to 142 °C
19,CC(C)(C)NC(=O)c1nn(-c2ccc(F)cc2F)c2c1C1CC3CC(C1)CC2C3,188 to 190 °C
20,CC(C)CNc1c([N+](=O)[O-])c2nnnn2c2ccccc12,152 to 154 °C

row,SMILES,melting point
1,c1ccc(-c2ccnc(-c3ccc4cc[nH]c4c3)n2)cc1,160 °C
2,O=C(CCCCCNC(=O)C(c1ccccc1)c1ccccc1)NO,55 to 56 °C
3,Cc1c(-c2ccccc2)n(-c2c(F)cccc2F)c(-c2ccccc2Cl)cc1=O,213 to 215 °C
4,CN1CCN(c2ccccc2C=CC(=O)Nc2ccc(C(F)(F)F)cc2)CC1,207 to 209 °C
5,COc1ccc2c(C(=O)c3cc(OC)c(OC)c(OC)c3)c(-c3ccc(OC)c(O)c3)[nH]c2c1,189 to 190 °C
6,CN1CNC(=S)N(c2ccc(N(C)C)cc2)C1,173 to 175 °C
7,C=C(C)CN(c1ncnc2c1ncn2C1OC(CO)C(O)C1O)C1CCCCC1 (stereo not drawn),110 to 112 °C
8,CCCCCCCCCCCCCCCCCCCNC(=O)C1CSC(c2cccnc2)N1 (stereo not drawn),108 to 110 °C
9,CCOC(=O)c1ccc(C=C(C)C=O)cn1,72 to 73 °C
10,Cc1nnc(-c2ccc3ncn(-c4cc(C(F)(F)F)ccc4Cl)c3c2)o1,211 to 212 °C
11,COC(=O)CCc1ccc(-n2cnn(CCC3CCN(C(=O)OC(C)(C)C)CC3)c2=O)cc1,139 to 141 °C
12,CC(=S)N[C@@H]1c2cc(C#N)ccc2OC(C)(C)[C@H]1O (relative stereo),176 to 180 °C
13,CC1(C)Oc2ccc(C#N)cc2C(n2ccc(-c3ccc([N+](=O)[O-])cc3)cc2=O)C1O (stereo not drawn),278 to 284 °C
14,CC(=O)Oc1ccc2c(c1)OC(C)(c1ccccc1)O2 (stereo not drawn),87 to 87.5 °C
15,COc1cccc2c1CC(N(CCCc1c[nH]c3ccc(F)cc13)C1CC1)CO2 (stereo not drawn),115 °C
16,Cn1cc(C#N)c(-c2ccc([N+](=O)[O-])o2)n1,176 to 178 °C
17,NC(=O)COC(=O)c1c(Cl)cccc1Cl,114 to 116 °C
18,O=C(OCC1(COC(=O)c2ccccc2)c2ccccc2-c2ccccc21)c1ccccc1,144 to 146 °C
19,O=C1Cc2cc(Sc3ccccc3)ncc2N1,186 to 189 °C
20,Cc1nc2cnccc2n1-c1ccc(C2=Nc3cc(Cl)c(Cl)cc3N3CCN=C3C2)cc1,159 to 162 °C

row,SMILES,melting point
1,C/C(=C\F)CN1C(=O)c2ccccc2C1=O,57 to 58 °C
2,CS(=O)(=O)c1ccc(-c2cc(-c3ccc(F)cc3)n3c2CCC3)cc1,176 to 179 °C
3,OCCCCc1c[nH]c2ccccc12,189 to 190 °C
4,CC1(C)CN(c2ccncc2)c2ccc(S(=O)(=O)c3ccccc3)cc2O1,113 to 120 °C
5,CCc1ccc2c(c1)C(Cl)Cc1ccc(F)cc1S2 (stereo not drawn),68 to 70 °C
6,CNc1cc(N2CCc3ccccc32)cc(C)n1,174 to 175 °C
7,Cc1onc(-c2cccc(C(F)(F)F)c2)c1CCC(=O)O,63 to 64 °C
8,CCCCCCCCCCCCCCC(O)(CCCCCC(=O)O)CCCCCC(=O)O,79 to 80 °C
9,NCC(=O)N1Cc2ccccc2Oc2ccc(Cl)cc21,108 to 109 °C
10,CN(C)CCOc1ccc(-c2nnc(CSCCOc3ccccc3)o2)cc1,62 to 64 °C
11,CC(C)CCCC(C)C1CCC2(CC(=O)O)C3=C(CCC12C)C1(C)CCC(O)CC1CC3 (stereo not drawn),191 to 193 °C
12,Cn1ccc2c1CC(C(=O)OCc1ccccc1)C1C(=O)NC(=O)C21 (stereo not drawn),189 to 193 °C
13,Cn1c2ccccc2c2nc3c(CO)cccc3nc21,191 to 194 °C
14,NC(=O)CNc1ncccc1NC(=O)c1ccccc1,194 to 195 °C
15,OC(CCc1ccccc1)c1cc2ccncc2[nH]1 (stereo not drawn),162 to 166 °C
16,CN1CC(CCCl)Oc2ncc(Cl)cc2C1=S (stereo not drawn),125 to 127 °C
17,C[C@@H]1S[C@@H](C(=O)Nc2ccc(CN3CCCCC3)cc2)Cc2cc3c(cc2C1=O)OCO3,162 to 165 °C
18,Cc1cc(C)cc(NC(=O)CO)c1,114 °C
19,CCOc1nsnc1O,104 to 106 °C

# Next, values leading:
row,melting point,SMILES
1,> 250 °C,CCc1ccc(Nc2nc3cc(NC(=O)c4ccc(Cl)c(Cl)c4)ccc3o2)cc1
2,116 to 117 °C,CCCC[C@H](NC(=O)[C@H](CC(C)C)NC(=O)c1c(F)ccc(F)c1F)C(=O)CSCc1ccco1
3,194 to 196 °C,COc1cc2ccccc2cc1C(=O)NNC(=O)c1ccc2ccccc2c1
4,131 to 133 °C,CN1CCN(CCCNc2cc(Oc3ccc4c(C(=O)Nc5cc(C(C)(C)C)nn5-c5ccc(F)cc5)cccc4c3)ncn2)CC1
5,118 to 121 °C,CCCCCCCCCCCCCCOc1ccccc1NS(=O)(=O)c1ccc2c(N=Nc3ccc(OC)cc3)c(O)ccc2c1
6,204 to 208 °C,COC(=O)N1Cc2nc(C(=O)O)cn2-c2ccccc21
7,50 to 51 °C,COc1ccc(CCc2ccncc2NC(=O)c2ccccc2)cc1OC1CCCC1
8,205 to 210 °C,CC(C)Oc1ccc(Oc2ccc3c(c2)c(C(=O)O)c(CC(=O)O)n3-c2ccc(C(C)C)cc2)cc1
9,196 °C,CCCCc1nc2ccccc2n1Cc1ccc(C(=O)Nc2cccc3[nH]ccc23)cc1
10,127 to 130 °C,CC(C)(c1ccc2ncccc2c1)n1nnc2ccc(-c3ccc(C(N)=O)c(F)c3)nc21
11,143 to 147 °C,CCCCOc1cc2cc(C(=O)OC)c(C(=O)OC)c(-c3ccnc(Cl)c3)c2cc1OC
12,248 to 250 °C,CC(=O)Oc1ccc(-c2[nH]c3ccc(Cl)cc3c2-c2ccc(S(C)(=O)=O)cc2)cc1
13,32 to 35 °C,Cc1cc(COc2ccc(Cl)cc2CN)on1
14,135 °C,CCOc1nc(-c2cccc(Cl)c2)c2cc(C(O)(c3ccc(I)cc3)c3cncn3C)ccc2n1 (stereo not drawn)
15,125 to 127 °C,CC(C)Oc1ccc(CCCOc2cc(CCC(=O)O)n(C)n2)c(OCc2ccc(Cl)cc2Cl)c1
16,76 to 80 °C,CCCOc1ccc(CC(=O)NCC(=O)OC)cc1Cl
17,92 to 94 °C,COc1ccc(C(O)c2ccccn2)cc1OC (stereo not drawn)
18,72 to 75 °C,CCOC(=O)c1cnc2nc(OCC)ccc2c1Cl
19,111 to 113 °C,COc1ccc(C2CCN(c3c(C)c(C)c4c(c3C)C(c3ccsc3)C(C)(C)O4)CC2)cc1OC (stereo not drawn)
20,211 to 212 °C,Cc1ccc(C(=O)Nc2nccc(-c3c(-c4cccc(C)c4)nc4cccnn34)n2)cc1

row,melting point,SMILES
1,95 to 97 °C,CCCCc1nc2ccccn2c(=O)c1-c1ccc(N)cc1
2,203 to 206 °C,COc1cc(C(=O)O)ccc1Cc1cn(C)c2ccc(N(C(N)=O)C3CCCC3)cc12
3,111 to 117 °C,CCOC(=O)Cc1coc2c(OC)ccc(C(=O)Cc3ccncc3)c12
4,112 to 114 °C,COc1cc(C(=O)O)ccc1Cc1cn(C)c2ccc(C(=O)N(C)CC3CCCC3)cc12
5,212 to 213 °C,O=C(Nc1cccc(S(=O)(=O)C(F)(F)F)c1)c1cc2ccccc2cc1O
6,85 to 87 °C,COc1ccc2cc(CO)ccc2c1Br
7,193 to 195 °C,C=C(C)CNc1cc(C(=O)O)cc(S(N)(=O)=O)c1Sc1ccc(NC(C)=O)cc1
8,191 to 192 °C,CC(C)(C)C(NC(=O)Cc1ccc2c(c1)OCCO2)NC(=NC#N)Nc1cccc2ncccc12 (stereo not drawn)
9,151 to 154 °C,CCCSc1ncc(CC(NC(=O)CC(C)C)C(=O)O)n1Cc1ccccc1Cl (stereo not drawn)
10,37 °C,CCCCOC(=O)C(NC(=O)OCc1ccccc1)c1cccs1 (stereo not drawn)
11,224 °C,COC(=O)c1cc(-c2c(OC)cccc2OC)n(-c2ccc(NS(=O)(=O)c3ccc(C)cc3)cc2CC(C)C)n1
12,234 to 236 °C,CC(=O)Nc1c(C(=O)c2cccc(C)n2)[nH]c2cc(Cl)c(Br)cc12
13,131 to 133 °C,COc1ccc(Cl)cc1N1CCN(CCCN2C(=O)c3ccccc3C2=O)CC1
14,152 to 154 °C,COc1ccc(C2CC=CCC2NC(=O)c2ccc(OCC3CC3)c(OCC3CC3)c2)cc1OC (stereo not drawn)
15,70 to 72 °C,CN(CCO[N+](=O)[O-])C(=O)COC(=O)c1cc(S(N)(=O)=O)c(Cl)cc1NCc1ccco1
16,139 to 140 °C,Cc1ccc(-c2cc(F)c(F)cc2-c2ccc(S(N)(=O)=O)cc2)cc1Cl
17,194 to 195 °C,O=C(O)Cn1cc(Cc2nc3c(F)c(F)cc(F)c3s2)c2ccc(Cl)cc21
18,74 to 76 °C,C=CCOc1ccc2oc(C(=O)c3ccc(OC)cc3)c(C)c2c1
19,199 to 200 °C,COc1ccc(-c2ccc(C(=O)Nc3ccc4cc(CN5C(C)CCCC5C)ccc4c3)cc2)cc1 (stereo not drawn)
